Patent publication US9107909B2, “Materials and methods to enhance hematopoietic stem cells engraftment procedures” (priority 2008, dated 2015)
Entries after “also recorded” stand apart in the source; their conditions may differ.

Columns and labels:
SKL cells [1] = assay: HSPC homing to bone marrow in vivo; parameters: species or system mouse; conditions: for increase in in vivo marrow homing efficiency: pulse-exposed grafts or purified SKL cells, 16 hours post-transplant; for SKL cells homed to the marrow: vs vehicle-treated or un-manipulated cells
Method: CD45.2 WBM was labeled with CFSE (Molecular Probes, Eugene, Oreg.) washed and treated on ice with either 1 microMolar dmPGE2 or vehicle. After treatment, cells were washed and 2×10^7 cells transplanted into lethally irradiated CD45.2 mice. After 16 hours, femurs and tibias were flushed, and a proportion of mouse marrow Lin^+ cells depleted using MACS microbeads (Miltenyi Biotech), stained with fluorochrome-conjugated-antibodies specific for biotin (lineage), c-kit (K), and Sca-1 (S) and the total number of CFSE^+ WBM (non lineage depleted), KL and SKL cells determined. For congenic homing studies, Lin^neg CD45.1 cells were treated on ice with 1 microMolar dmPGE2, vehicle, or PBS. After incubation, cells were washed and 2×10^6 cells transplanted into CD45.2 mice. After 16 hours, recipient bone marrow was harvested, lineage depleted, stained, and donor CD45.1 SKL cells determined. For competitive, head-to-head homing studies using sorted SKL cells, Lin^neg cells from CD45.2 and CD45.1 mice were FACS sorted, cells treated with either dmPGE2 or vehicle for 2 hours, washed and 3×10^4 CD45.1 (vehicle or dmPGE2 treated) plus 3×10^4 CD45.2 (dmPGE2 or vehicle treated) SKL cells transplanted into lethally irradiated F1 Hybrid mice. To evaluate the role of CXCR4 in homing studies, Lin^neg CD45.2 cells were treated on ice with vehicle or 1 microMolar dmPGE2 plus 10 microMolar AMD3100 (AnorMed Inc., Vancouver, BC, Canada) and 2×10^6 treated cells injected into lethally irradiated CD45.1 mice. Homed SKL cells were analyzed 16 hours post-transplant.
Irrespective of its cause a marrow niche is required for HSPC to self-renew and differentiate and it is very likely that only HSPC homing to these niches can provide long-term repopulation. Referring now to FIG. 3A, in order to assess HSPC homing, CFSE labeled whole bone marrow (WBM) CD45.2 cells were pulsed with dmPGE2 or vehicle for 2 hours on ice, washed and injected IV in lethally irradiated CD45.2 hosts. After 16 hours, total CFSE^+ cells homing to bone marrow as well as the number of homed events within the KL and SKL cell populations were quantified.
Highly purified SKL cells from both CD45.2 and CD45.1 mice were isolated by FACS sorting, treated with dmPGE2 or vehicle, and 3×10^4 vehicle-treated CD45.1 cells plus 3×10^4 dmPGE2-treated CD45.2 cells transplanted into CD45.1/CD45.2 mice. An additional cohort was concurrently transplanted with congenic strain and treatment groups were switched to test for any bias in strain homing. […] Although SKL cells are not a homogenous HSPC population, they are highly enriched for LTRC (Okada et al., 1992; Spangrude and Scollay, 1990).
To evaluate the role of CXCR4 in homing, Lineage^neg CD45.2 cells were treated with vehicle or 1 microMolardmPGE2 plus 10 microMolar AMD3100, 2×10^6 treated cells injected into lethally-irradiated CD45.1 mice and homed SKL cells recovered 16 hours post-transplant and analyzed by FACS. Referring now to FIG. 11, homing efficiency of vehicle and dmPGE2 treated cells to bone marrow in the absence and presence of 10 microMolar AMD3100. Cells were incubated with AMD3100 for 30 minutes prior to the homing assay.

SKL cells [2] = assay: Apoptosis assay (Annexin-V+ SKL cells); format: cell-based, mouse; conditions: for apoptosis of SKL cells in vitro: 0.1 nanoMolar-1 microMolar
Method: Lin^neg cells were treated on ice with 0.1 nanoMolar to 1 microMolar dmPGE2 or vehicle control, washed and incubated in RPMI-1640+2% FBS, without growth factors at 37° C. to induce apoptosis. After 24 hours, cells were stained for SKL and Annexin-V and the proportion of Annexin-V^+ SKL cells was determined by FACS.
Apoptosis is an important regulatory process in normal and malignant hematopoiesis and PGE2 has been implicated in anti-apoptotic signalling. Moreover, activation of cAMP, a downstream signaling molecule of EP receptors, inhibits apoptosis in CD34^+ cells. […] To evaluate an effect of dmPGE2 on HSPC survival, Lin^neg cells were pulsed with 0.1 nanoMolar-1 microMolar dmPGE2 or vehicle and cultured in serum-reduced culture medium without growth factors.

homed SKL cells = assay: In vivo cell cycle analysis (BrdU) of homed SKL cells; parameters: species or system mouse; conditions: BrdU treated recipient mice, 16 hours, vs vehicle pulsed cells
Method: For in vitro cell cycle analysis, Lin^neg cells were treated with either 1 microMolar dmPGE2 or vehicle for 2 hours, washed, and cultured in Stem Cell Pro Media (Stem Cell Technologies) with rmSCF (50 ng/ml) (R&D Systems, Minneapolis, Minn.), rhFlt-3 and rhTPO (100 ng/ml each) (Immunex, Seattle, Wash.). After 20 hours, cells were stained for SKL, fixed and permeabilized, and stained with 7AAD (BD Biosciences, San Jose, Calif.). The proportion of SKL cells in S+G2/M phase was determined by measuring DNA content by FACS. […] The proportion of homed (CD45.1^+) SKL cells that were BrdU^+ was determined by FACS in individual mice.
To confirm the effect of dmPGE2 on enhancement of HSPC cell cycle observed in vitro, marrow cells were pulsed with dmPGE2 and injected into congenic mice treated with BrdU post-transplant, and the proportion of donor BrdU^+ SKL cells was determined 16 hours later.
CD45.1 Lineage^neg bone marrow cells were treated with dmPGE2 or vehicle and transplanted into lethally irradiated CD45.2 mice. […] Bone marrow was analyzed 16 hours later and the proportion of CD45.1^+, SKL cells that were BrdU^+ was analyzed by FACS analysis. […] Bone marrow was analyzed 16 hours later and the proportion of CD45.1^+, SKL cells that were BrdU^+ was analyzed by FACS analysis. […]

Row | Structure (SMILES) | increase in in vivo marrow homing efficiency (SKL cells [1]) [fold] | SKL cells homed to the marrow (SKL cells [1]; 16 hours) | apoptosis of SKL cells in vitro (SKL cells [2]) | donor (homed) SKL cells in S+G2/M phase (homed SKL cells) [fold] | percentage of CFSE+ cells homing to the marrow, total WBM cells (SKL cells [1]; vs vehicle-treated cells, 16 hours) | inhibition of apoptosis in SKL cells (SKL cells [2]; at 1 microMolar, serum-reduced medium without growth factors, 24 hours) [%]
1 | CCCCC[C@H](O)/C=C/[C@H]1[C@H](O)CC(=O)[C@@H]1C/C=C\CCCC(=O)O [PGE2, Prostaglandin E2] | ~2 | higher proportion | dose-dependently decreased apoptosis | ~2 | – | –
2 | CCCCC(C)(C)[C@H](O)/C=C/[C@H]1[C@H](O)CC(=O)[C@@H]1C/C=C\CCCC(=O)O [dmPGE2, 16,16-dimethyl prostaglandin E2] | 2 | significantly more SKL cells homed; also recorded: significantly greater percentage of SKL cells | reduced apoptosis in SKL cells in a dose dependent fashion | ~2 | No difference | ~65
